Like-named read-outs stand apart in the source and are kept apart here.
Assays:
[1] = system: B. caballi; test: Growth inhibitory fluorescence assay in vitro, B. caballi; assay type: cell-based, Babesia caballi; details: for Selective index HFF: EC50 HFF / IC50 B. caballi; for Selective index MDBK: EC50 MDBK / IC50 B. caballi; for Selective index NIH/3T3: EC50 NIH/3T3 / IC50 B. caballi
Description: (§1) Texas strain of B. bovis and Argentina strain of B. bigemina were grown using bovine red blood cells (RBCs, collected from cattle farm of Obihiro University of Agriculture and Veterinary Medicine and stored at 4°C) in medium 199 (M199; Sigma-Aldrich, Tokyo, Japan) supplemented with 40% bovine serum, while RPMI 1640 medium (Sigma-Aldrich, Tokyo, Japan) was used for B. divergens (German strain) cultivation. The United States Department of Agriculture (USDA) strain of T. equi was grown in equine RBCs (collected from horse farm of Obihiro University of Agriculture and Veterinary Medicine and stored at 4°C) in M199 supplemented with 40% equine serum, and hypoxanthine (MP Biomedicals, Santa Ana, CA, USA) at a final concentration of 13.6 μg/ml was used as a vital supplement, while GIT medium was used for B. caballi (USDA strain) cultivation. Sixty μg/ml of streptomycin, 0.15 μg/ml of amphotericin B, and 60 U/ml of penicillin G (Sigma-Aldrich, Tokyo, Japan) were added to all media to prevent fungal and bacterial contamination. All parasite cultures were maintained for a long time in a microaerophilic stationary-phase culture system.
(§2) The inhibition assay was conducted according to the previously described protocol. Briefly, different concentrations of CRY, DA, CF, and AQ were added in triplicate in 96-well plates with 1% parasitemia and 2.5% HCT for B. bovis and B. bigemina and 5% HCT for B. divergens, B. caballi, and T. equi. The plates were incubated in a humidified incubator with 5% CO2, 5% O2, and 90% N2 for 96 h without changing the media. After 96 h, 100 μl of lysis buffer containing 2 × SG1 was directly added to each well and the plates were then wrapped in aluminum foil for protection from direct light and incubated for 6 h at room temperature. Afterward, the fluorescence was measured using a fluorescence spectrophotometer (Fluoroskan Ascent, Thermo Fisher Scientific, USA) at 485 nm excitation and 518 nm emission wavelengths. The relative fluorescence value was set to percentages after subtracting the mean values of the negative control. The experiment was repeated thrice.
(§3) The IC50 values of CRY, DA, CF, and AQ were determined using the nonlinear regression curve fit in GraphPad Prism (GraphPad Software Inc., San Diego, CA, USA). Combination index (CI) values for the drug combination were calculated using CompuSyn software, and the degree of synergism was determined as the weighted average of CI values using a formula [(1 x IC50) + (2 x IC75) + (3 x IC90) + (4 x IC95)]/10 [30]. The differences in parasitemia and hematology profiles in the B. microti–infected mice were analyzed using an independent Student’s t-test and one-way ANOVA test using GraphPad Prism version 5.0 for Windows (GraphPad Software Inc., San Diego, CA, USA). A P-value < 0.05 was considered statistically significant.

[2] = system: B. microti small-subunit rRNA (ss-rRNA) gene; test: Nested PCR detection of B. microti DNA in blood of treated mice; assay type: in vivo, Babesia microti
Description: (§4) The promising effect of CRY in vitro encouraged us to evaluate its in vivo effects against B. microti in mice. The assay was conducted in accordance with the previously described protocol. In two separate trials, 35 female 8-week-old BALB/c mice, housed under a pathogen-free environment with controlled humidity, temperature (22°C) and a 12 h light/ dark cycle were caged in seven groups, each group consisting of five mice. Six groups were i.p. injected with 0.5 ml of inoculum (1×10^7 B. microti iRBCs), while the seventh group was left uninfected and untreated to act as a negative control. When the average parasitemia in all infected mice reached approximately 1%, the 5-day drug treatment was initiated. The first and second groups were i.p. injected with 25 mg/kg body weight (BW) of DA and 5 mg/kg BW of CRY, respectively. The third group received 20 mg/kg BW of AQ orally, while the fourth and fifth groups were administered a combination of 2.5 mg/kg BW CRY + 12.5 mg/kg BW DA and 2.5 mg/kg BW CRY + 10 mg/kg AQ via a route similar to that of the single-drug treatment, respectively. The sixth group received 5% DMSO in physiological saline i.p. as a positive control. Parasitemia and hematology profiles (RBCs, hemoglobin (HGB), and HCT) were monitored every 2 and 4 days by microscopic examination and hematology analyzer (Celltac α MEK-6450, Nihon Kohden Corporation, Tokyo, Japan), respectively. On day 49, all mice were euthanized using an anesthesia system containing isoflurane and the blood was collected by cardiac puncture for PCR detection of the parasites.
The nested PCR (nPCR) that targeted the B. microti small-subunit rRNA (ss-rRNA) gene was performed in accordance with the previously described protocol and the genomic DNA was extracted from blood samples collected from all mice groups on day 49 post-infection (p.i.) using a QIAamp DNA Blood Mini Kit (Qiagen, Tokyo, Japan). PCR cycling conditions were performed as previously described and the bands with an expected size of 154 bp were considered positive.

[3] = system: B. divergens; test: Growth inhibitory fluorescence assay in vitro, B. divergens; assay type: cell-based, Babesia divergens; details: for IC50: Babesia divergens; for Selective index HFF: EC50 HFF / IC50 B. divergens; for Selective index MDBK: EC50 MDBK / IC50 B. divergens; for Selective index NIH/3T3: EC50 NIH/3T3 / IC50 B. divergens
Description: as §1, §2, §3

[4] = system: B. microti; test: Chemotherapeutic effect against B. microti in mice (parasitemia); assay type: in vivo, Babesia microti; details: for day p.i. on which parasitemia was undetectable by microscopy / peak parasitemia level: BALB/c mice; for peak parasitemia level: 5 days, day 10
Description: Rodent B. microti (Munich strain) was recovered from -80°C stock and injected intraperitoneally (i.p.) in two 8-week-old female BALB/c mice purchased from CLEA Japan (Clea Japan, Tokyo, Japan). The mice were euthanized using an anesthesia system containing isoflurane after parasitemia reached approximately 30% and the blood was collected by cardiac puncture to conduct the in vivo studies.
as §4

[5] = system: B. bovis; test: Growth inhibitory fluorescence assay in vitro, B. bovis; assay type: cell-based, Babesia bovis; details: for IC50: Babesia bovis, in Bos taurus, B. bovis in vitro culture, fluorescence assay, 96 h; for Selective index HFF: EC50 HFF / IC50 B. bovis; for Selective index MDBK: EC50 MDBK / IC50 B. bovis
Description: as §1, §2, §3

[6] = system: B. bigemina; test: Growth inhibitory fluorescence assay in vitro, B. bigemina; assay type: cell-based, Babesia bigemina; details: for Selective index HFF: EC50 HFF / IC50 B. bigemina; for Selective index MDBK: EC50 MDBK / IC50 B. bigemina; for Selective index NIH/3T3: EC50 NIH/3T3 / IC50 B. bigemina
Description: as §1, §2, §3

[7] = B. divergens in vitro culture, fluorescence assay, 96 h, read-out: IC50

In the case of `O=C1C(O)=C([C@H]2CC[C@H](c3ccc(Cl)cc3)CC2)C(=O)c2ccccc21` [AQ, atovaquone], the “Selective index HFF” value [1] is reported as “˃ 980.4”, the “Selective index MDBK” value [1] is reported as “˃ 980.4” and the “Selective index NIH/3T3” value [1] is reported as “˃ 980.4”. For the same compound, the “parasite DNA in blood (nPCR)” value ([2]; day 49, 20 mg/kg AQ) was “not detected”, the IC50 [3, 7] was 38 ± 0.002 nM and the “Selective index HFF” value [3] was “˃ 2631.6”. For the same compound, the “Selective index MDBK” value [3] was “˃ 2631.6”, the “Selective index NIH/3T3” value [3] was “˃ 2631.6” and the “day p.i. on which parasitemia was undetectable by microscopy” value ([4]; 20 mg/kg AQ oral) was 18 days. The peak parasitemia level ([4]; 20 mg/kg AQ oral) was 9%, the IC50 [5] was 39 ± 0.002 nM and the “Selective index HFF” value [5] was “˃ 2564.1”. For the same compound, the “Selective index MDBK” value [5] was “˃ 2564.1”, the “Selective index NIH/3T3” value ([5]; EC50 NIH/3T3 / IC50 B. bovis) was “˃ 2564.1” and the “Selective index HFF” value [6] was “˃ 142.7”. The “Selective index MDBK” value [6] was “˃ 142.7” and the “Selective index NIH/3T3” value [6] was “˃ 142.7”.
For `Cn1c2c3ccccc3nc-2cc2ccccc21` [CRY, Cryptolepine hydrate], the “concentration at which in vitro growth was significantly inhibited” value ([1]; B. caballi, t-test P = 0.001) was 0.03 µM, the IC50 ([1]; Babesia caballi, B. caballi in vitro culture, fluorescence assay, 96 h) was 600 ± 0.53 nM and the “Selective index HFF” value [1] was “˃ 166.7”. The “Selective index MDBK” value [1] was 144.45, the “Selective index NIH/3T3” value [1] was 158.82 and the “parasite DNA in blood (nPCR)” value ([2]; day 49, 5 mg/kg CRY) was “still detected”. The “concentration at which in vitro growth was significantly inhibited” value ([3]; B. divergens, t-test P = 0.003) was 0.078 µM, the IC50 [3, 7] was 790 ± 0.32 nM and the IC50 ([3]; B. divergens, fluorescence assay after 96 h, three trials, read-out: IC50 (Fig 1)) was 788 ± 320 nM. For the same compound, the “Selective index HFF” value [3] was “˃ 126.9”, the “Selective index MDBK” value [3] was 109.71 and the “Selective index NIH/3T3” value [3] was 120.62. The “day p.i. on which parasitemia was undetectable by microscopy” value ([4]; 5 mg/kg CRY i.p.) was 28 days, the peak parasitemia level ([4]; 5 mg/kg CRY i.p., DMSO control 62.6% on day 8) was 12.9% and the “growth of B. microti in mice” value ([4]; CRY 5 mg/kg) was “effectively inhibited”. For the same compound, the “concentration at which in vitro growth was significantly inhibited” value ([5]; B. bovis, t-test P = 0.005) was 0.15 µM, the IC50 [5] was 1740 ± 0.37 nM and the “Selective index HFF” value [5] was “˃ 57.5”. The “Selective index MDBK” value [5] was 49.81, the “concentration at which in vitro growth was significantly inhibited” value ([6]; B. bigemina, t-test P = 0.005) was 0.15 µM and the IC50 ([6]; Babesia bigemina, B. bigemina in vitro culture, fluorescence assay, 96 h) was 1400 ± 0.6 nM. For the same compound, the “Selective index HFF” value [6] was “˃ 71.4”, the “Selective index MDBK” value [6] was 61.91 and the “Selective index NIH/3T3” value [6] was 68.07.

Reference: publication PMC7451656, “In vitro and in vivo growth inhibitory activities of cryptolepine hydrate against several Babesia species and Theileria equi” (PLoS Neglected Tropical Diseases, 2020)
